Reference: the SangsterLogP compilation

Assay: not given

For `C#CCn1nnnc1Oc1ccc(NC(=O)N(C)C)cc1`, which logP is on record?
Its logP is 1.

For `CCn1nnc(Oc2ccc(NC(=O)N(C)C)cc2Cl)n1`, which logP is on record?
The logP was 1.7.

With `CN(C)C(=O)Nc1ccc(Oc2nnnn2C(C)(C)C)c(Cl)c1` as the compound, how does the logP read?
Its logP is 2.25.

For `C=CCn1nnc(Oc2ccc(NC(=O)N(C)C)cc2)n1`, which logP is on record?
The logP was 1.65.

Which logP does the source give for `CN(C)C(=O)Nc1ccc(Oc2nnnn2C(C)(C)C)cc1` here?
Its logP is 1.65.

For `CN(C)C(=O)Nc1ccc(Oc2nnnn2Cc2ccccc2)cc1`, which logP is on record?
Its logP is 1.7.

Which logP does the source give for `C=CCn1nnnc1Oc1ccc(NC(=O)N(C)C)cc1` here?
The logP was 1.

With `CCCCCCCCn1nnc(Oc2ccc(NC(=O)N(C)C)cc2)n1` as the compound, how does the logP read?
Its logP is 4.4.

For `CN(C)C(=O)Nc1ccc(Oc2nnn(Cc3ccccc3)n2)cc1`, which logP is on record?
Its logP is 2.25.

Which logP does the source give for `CC(C)n1nnc(Oc2ccc(NC(=O)N(C)C)cc2)n1` here?
The logP was 1.45.

With `C#CCn1nnc(Oc2ccc(NC(=O)N(C)C)cc2)n1` as the compound, how does the logP read?
The logP was 1.65.

Assay: method code SF-AS, from DOI: 10.1021/jf00085a044

For `CN(C)C(=O)Nc1ccc(Oc2nnn(C)n2)cc1`, which logP is on record?
Its logP is 0.63.

For `CCOC(=O)Cn1nnnc1Oc1ccc(NC(=O)N(C)C)cc1`, which logP is on record?
Its logP is 0.7.

With `CN(C)C(=O)Nc1ccc(Oc2nnn(C(C)(C)C)n2)cc1` as the compound, how does the logP read?
The logP was 2.08.

With `CCCCCCCCn1nnnc1Oc1ccc(NC(=O)N(C)C)cc1` as the compound, how does the logP read?
Its logP is 3.96.

Which logP does the source give for `CN(C)C(=O)Nc1ccc(Oc2nnnn2C2CCCCC2)cc1` here?
The logP was 2.18.

Which logP does the source give for `CN(C)C(=O)Nc1ccc(Oc2nnn(CCC#N)n2)cc1` here?
The logP was 0.28.

With `CN(C)C(=O)Nc1ccc(Oc2nnn(C3CCCCC3)n2)cc1` as the compound, how does the logP read?
The logP was 2.67.

For `CCn1nnnc1Oc1ccc(NC(=O)N(C)C)cc1Cl`, which logP is on record?
Its logP is 1.5.

With `CCn1nnc(Oc2ccc(NC(=O)N(C)C)cc2)n1` as the compound, how does the logP read?
The logP was 1.1.
